Results: patent US9751840B2, “R-7-(3-aminomethyl-4-methoxyimino-3-methyl-pyrrolidin-1-yl)-1-cyclopropyl-6-fluoro-4-oxo-acid and L-aspartic acid salt, process for the preparation thereof and pharmaceutical composition comprising the same for antimicrobial” (ARIBIO CO. LTD., priority 2009, dated 2017)
Values after ≈ are worked out from the molar mass of the structure shown. Like-named read-outs stand apart in the source and are kept apart here.

Legend:
[1] = Stability test in distilled water; type: physicochemical; details: 30 mg in 100 ml distilled water
[2] = test system: polychromatic erythrocyte with one or more nuclei (MNPCE); experiment: In vivo genotoxicity, micronucleus test; details: male mice, twice intraperitoneal, 30, 15, 7.5 mg/kg
Description: The following study performed to obtain in vivo genotoxicities, micronucleus test of L-aspartate and hydrochloric acid salt in male mice to the following procedure.

[3] = In vivo pharmacokinetic test; set-up: species or system SD rats; details: rats
Description: The L-aspartate and hydrochloride according to the present invention were orally or intravenously administered to SD rats, respectively and blood samples were collected at a predetermined time to compare in vivo pharmacokinetics.
Then, Cmax: maximum drug concentration, Tmax: maximum drug concentration time, T1/2: drug half-life, AUCO-t: area under the plasma concentration-time curve from time zero to t hours, and AUCO-inf: area under the plasma concentration-time curve from time zero to infinity.

[4] = In vivo tissue distribution test; set-up: species or system ICR mice; details: mouse, po; for Kp: ICR, 100 mg/kg
Method: An in vivo tissue distribution test was performed in order to confirm the degree of drug distribution of the L-aspartate and hydrochloride according to the present invention in each organ. After 8-week-old ICR mice were purchased and adapted in the laboratory, each salt was orally administered to the mouse at a dose of 100 mg/kg. The mice were bled and sacrificed at a predetermined time and each organ was drawn to measure the concentration in each organ. After the administration of hydrochloride and L-aspartate, each organ concentration over time, the area under the corresponding time-concentration curve, and the ratio of permeation into tissue were shown in Tables 5 and 6.
Then, P ratio is a ratio of permeation into muscle and calculated as intramuscular AUC/intraplasmic AUC.

[5] = In vivo tissue distribution test; set-up: species or system ICR mice; details: ICR, mouse, spleen, po, 100 mg/kg; read-out: P ratio Spleen
Solubility test = type: physicochemical
Male ICR mice = experiment: Single dose toxicity in mice (LD50); details: single intraperitoneal dose, observed 14 days
Method: The following experiment was performed in order to observe the degree of toxicity of the L-aspartate according to the present invention.
Male ICR mice were used as experimental animals. 5 male ICR mice were divided into 6 dose groups, respectively and fasted except for water for 24 hours.

[6] = SD, rat, plasma, iv, i.v. 10 mg/kg
[7] = SD, rat, plasma, po, p.o. 100 mg/kg
[8] = male, testicle, ICR mice, p.o. 100 mg/kg, read-out: Testicle concentration
[9] = brain, ICR mice, p.o. 100 mg/kg, read-out: Brain concentration
[10] = heart, ICR mice, p.o. 100 mg/kg, read-out: Heart concentration
[11] = kidney, ICR mice, p.o. 100 mg/kg, read-out: Kidney concentration
[12] = liver, ICR mice, p.o. 100 mg/kg, read-out: Liver concentration
[13] = lung, ICR mice, p.o. 100 mg/kg, read-out: Lung concentration
[14] = muscle, ICR mice, p.o. 100 mg/kg, read-out: Muscle concentration
[15] = plasma, ICR mice, p.o. 100 mg/kg, read-out: Plasma concentration
[16] = spleen, ICR mice, p.o. 100 mg/kg, read-out: Spleen concentration
[17] = testicle, ICR mice, p.o. 100 mg/kg, read-out: Testicle concentration
[18] = thymus, ICR mice, p.o. 100 mg/kg, read-out: Thymus concentration

Which “Content (%) 60? (after 3 weeks)” value ([1]; 60?, 3 weeks) does the source give for CO/N=C1/CN(c2nc3c(cc2F)c(=O)c(C(=O)O)cn3C2CC2)C[C@@]1(C)CN [L-aspartate (Example 1)] here?
The value was 87.4%.

And the “Content (%) Initial” value ([1]; initial)?
Its value is 98.1%.

And the “Content (%) Room temperature (after 3 weeks)” value ([1]; room temperature, 3 weeks)?
Its value is 98.0%.

What about the “MNPCE number vs intact control” value [2] of the same compound?
The value was “not detected significant change”.

And the AUC(0-inf) [3, 6]?
Its AUC(0-inf) is 9320 ± 280 ng·h/mL.

And the AUC(0-t) [3, 6]?
Its AUC(0-t) is 7520 ± 220 ng·h/mL.

And the Cmax [3, 6]?
Its Cmax is 4180 ± 290 ng/mL.

And the Tmax [3, 6]?
Its Tmax is 0 h.

What about the half-life [3, 6] of the same compound?
Its half-life is 2.05 ± 1.55 h.

What about the AUC(0-t) [3, 7] of the same compound?
The AUC(0-t) was 52700 ± 28700 ng·h/mL.

And the Cmax [3, 7]?
Its Cmax is 9080 ± 4500 ng/mL.

What about the Tmax [3, 7] of the same compound?
The Tmax was 2.13 ± 0.63 h.

And the “BA (%)” value ([3]; p.o. 100 mg/kg, calculated by ratio of AUC0-t)?
Its value is 70.05%.

And the Kp ([4]; brain, read-out: P ratio Brain)?
The Kp was 0.27.

And the Kp ([4]; heart, read-out: P ratio Heart)?
The Kp was 4.28.

What about the Kp ([4]; kidney, read-out: P ratio Kidney) of the same compound?
Its Kp is 7.44.

And the Kp ([4]; liver, read-out: P ratio Liver)?
Its Kp is 11.2.

What about the Kp ([4]; lung, read-out: P ratio Lung) of the same compound?
Its Kp is 6.01.

And the Kp ([4]; muscle, read-out: P ratio Muscle)?
Its Kp is 3.87.

And the Kp ([4]; thymus, read-out: P ratio Thymus)?
The Kp was 4.96.

What about the Kp ([4]; male, testicle, read-out: P ratio Testicle) of the same compound?
Its Kp is 1.75.

And the concentration at 0.5 h [4, 8]?
The concentration at 0.5 h was 4940 ng/g.

What about the concentration at 1 h [4, 8] of the same compound?
The concentration at 1 h was 8820 ng/g.

And the concentration at 8 h [4, 8]?
Its concentration at 8 h is 6970 ng/g.

And the concentration at 0.5 h [4, 9]?
Its concentration at 0.5 h is 2280 ng/g.

And the concentration at 1 h [4, 9]?
The concentration at 1 h was 2550 ng/g.

What about the concentration at 1.5 h [4, 9] of the same compound?
The concentration at 1.5 h was 2340 ng/g.

And the concentration at 2 hr [4, 9]?
Its concentration at 2 hr is 2570 ng/g.

And the concentration at 3 h [4, 9]?
Its concentration at 3 h is 2020 ng/g.

And the concentration at 5 h [4, 9]?
Its concentration at 5 h is 1520 ng/g.

And the concentration at 8 h [4, 9]?
The concentration at 8 h was 330 ng/g.

And the concentration at 0.5 h [4, 10]?
The concentration at 0.5 h was 47200 ng/g.

What about the concentration at 1 h [4, 10] of the same compound?
The concentration at 1 h was 58000 ng/g.

And the concentration at 1.5 hr [4, 10]?
The concentration at 1.5 hr was 50000 ng/g.

What about the concentration at 2 hr [4, 10] of the same compound?
The concentration at 2 hr was 36700 ng/g.

And the concentration at 3 h [4, 10]?
Its concentration at 3 h is 27700 ng/g.

What about the concentration at 5 h [4, 10] of the same compound?
Its concentration at 5 h is 1330 ng/g.

And the concentration at 8 h [4, 10]?
Its concentration at 8 h is 8720 ng/g.

What about the concentration at 0.5 h [4, 11] of the same compound?
Its concentration at 0.5 h is 79200 ng/g.

And the concentration at 1 h [4, 11]?
The concentration at 1 h was 79200 ng/g.

And the concentration at 1.5 h [4, 11]?
The concentration at 1.5 h was 77400 ng/g.

And the concentration at 2 hr [4, 11]?
Its concentration at 2 hr is 62200 ng/g.

And the concentration at 3 h [4, 11]?
Its concentration at 3 h is 48800 ng/g.

What about the concentration at 5 h [4, 11] of the same compound?
Its concentration at 5 h is 34000 ng/g.

And the concentration at 8 h [4, 11]?
Its concentration at 8 h is 20200 ng/g.

What about the concentration at 0.5 h [4, 12] of the same compound?
Its concentration at 0.5 h is 128000 ng/g.

And the concentration at 1 h [4, 12]?
Its concentration at 1 h is 114000 ng/g.

What about the concentration at 1.5 h [4, 12] of the same compound?
The concentration at 1.5 h was 118000 ng/g.

And the concentration at 2 hr [4, 12]?
Its concentration at 2 hr is 85400 ng/g.

What about the concentration at 3 h [4, 12] of the same compound?
The concentration at 3 h was 70800 ng/g.

What about the concentration at 5 h [4, 12] of the same compound?
The concentration at 5 h was 57400 ng/g.

What about the concentration at 8 h [4, 12] of the same compound?
The concentration at 8 h was 26600 ng/g.

And the concentration at 0.5 h [4, 13]?
The concentration at 0.5 h was 76300 ng/g.

And the concentration at 1 h [4, 13]?
Its concentration at 1 h is 70100 ng/g.

And the concentration at 1.5 h [4, 13]?
Its concentration at 1.5 h is 71500 ng/g.

And the concentration at 2 hr [4, 13]?
The concentration at 2 hr was 52700 ng/g.

What about the concentration at 3 h [4, 13] of the same compound?
The concentration at 3 h was 38700 ng/g.

What about the concentration at 5 h [4, 13] of the same compound?
The concentration at 5 h was 24500 ng/g.

What about the concentration at 8 h [4, 13] of the same compound?
Its concentration at 8 h is 11600 ng/g.

What about the concentration at 0.5 h [4, 14] of the same compound?
Its concentration at 0.5 h is 38000 ng/g.

And the concentration at 1 h [4, 14]?
The concentration at 1 h was 39600 ng/g.

And the concentration at 1.5 h [4, 14]?
Its concentration at 1.5 h is 37400 ng/g.

And the concentration at 2 hr [4, 14]?
The concentration at 2 hr was 36700 ng/g.

And the concentration at 3 h [4, 14]?
Its concentration at 3 h is 28800 ng/g.

And the concentration at 5 h [4, 14]?
The concentration at 5 h was 18000 ng/g.

And the concentration at 8 h [4, 14]?
Its concentration at 8 h is 6930 ng/g.

And the concentration at 0.5 h [4, 15]?
The concentration at 0.5 h was 11600 ng/mL.

And the concentration at 1 h [4, 15]?
Its concentration at 1 h is 12200 ng/mL.

What about the concentration at 1.5 h [4, 15] of the same compound?
Its concentration at 1.5 h is 10700 ng/mL.

And the concentration at 2 hr [4, 15]?
The concentration at 2 hr was 8470 ng/mL.

What about the concentration at 3 h [4, 15] of the same compound?
The concentration at 3 h was 6300 ng/mL.

And the concentration at 5 h [4, 15]?
Its concentration at 5 h is 4620 ng/mL.

And the concentration at 8 h [4, 15]?
The concentration at 8 h was 1870 ng/mL.

What about the AUC(0-t) ([4]; plasma, ICR mice, p.o. 100 mg/kg, read-out: AUC0-t Plasma) of the same compound?
The AUC(0-t) was 47400 ng·h/mL.

And the concentration at 0.5 h [4, 16]?
Its concentration at 0.5 h is 91600 ng/g.

And the concentration at 1 h [4, 16]?
Its concentration at 1 h is 98100 ng/g.

What about the concentration at 1.5 hr [4, 16] of the same compound?
Its concentration at 1.5 hr is 84900 ng/g.

What about the concentration at 2 hr [4, 16] of the same compound?
Its concentration at 2 hr is 67300 ng/g.

And the concentration at 3 h [4, 16]?
The concentration at 3 h was 57600 ng/g.

And the concentration at 5 h [4, 16]?
The concentration at 5 h was 43700 ng/g.

What about the concentration at 8 h [4, 16] of the same compound?
Its concentration at 8 h is 23400 ng/g.

And the concentration at 1.5 hr [4, 17]?
The concentration at 1.5 hr was 10200 ng/g.

What about the concentration at 2 hr [4, 17] of the same compound?
Its concentration at 2 hr is 12900 ng/g.

And the concentration at 3 h [4, 17]?
The concentration at 3 h was 14800 ng/g.

And the concentration at 5 h [4, 17]?
Its concentration at 5 h is 11500 ng/g.

And the concentration at 0.5 h [4, 18]?
Its concentration at 0.5 h is 26500 ng/g.

And the concentration at 1 h [4, 18]?
The concentration at 1 h was 48100 ng/g.

And the concentration at 1.5 hr [4, 18]?
The concentration at 1.5 hr was 48800 ng/g.

What about the concentration at 2 hr [4, 18] of the same compound?
The concentration at 2 hr was 40100 ng/g.

And the concentration at 3 h [4, 18]?
The concentration at 3 h was 39800 ng/g.

And the concentration at 5 h [4, 18]?
The concentration at 5 h was 25900 ng/g.

And the concentration at 8 h [4, 18]?
The concentration at 8 h was 12800 ng/g.

What about the Kp [5] of the same compound?
The Kp was 8.82.

What about the “Solubility relative to the hydrochloride” value (Solubility test; distilled water) of the same compound?
The value was “about 2 times”.

And the solubility (Solubility test; room temperature, water)?
The solubility was 190 mg/mL (≈ 470 mM).

And the “Lethal dose 50” value (Male ICR mice)?
The value was 209 mg/kg.
